Assays:
[1] = Nitric oxide gas bubbled through carrier, change in weight; format: physicochemical; conditions: NO gas bubbled 40 hr, 25 °C
Method: This example illustrates one technique for preparing a composition in accordance with one embodiment of the invention. An accurate amount of a carrier (HNC 167-62) (see below) was introduced into a system. The carrier weight used in these experiments was approximately 250 g and the vessel size was 500 ml. The vessel was equipped with a mechanical stirrer, gas inlet, and gas outlet and was previously purged with argon for about an hour. The temperature of the carrier was kept at about 25-30° C. NO gas regulated at 5 psi (1 psi is about 6,900 Pa) and was then introduced at a controlled rate of about 1 bubble/s with continuous stirring. […] After 6 hours, the weight of the carrier had increased by 0.15%, by 12 hours by 0.25%, and by 24 hours by 0.56%. These increases in weight were believed to be significant considering the relative small molecular weight of NO versus the carrier. […] The carrier also can solidify upon cooling if the carrier is initially a solid at lower temperature.
Each carrier was taken in a 500 mL three necked flask equipped with a mechanical stirrer, gas inlet and a gas outlet. The system was purged with argon for one hour at room temperature (25° C.). Then nitric oxide gas was bubbled into the system. Then, nitric oxide gas was bubbled through carrier for stipulated amount of time. The changes in weight and color were noted. […]

[2] = test system: humans; experiment: Laser Doppler capillary circulation in five human subjects, Example 7; format: in vivo; conditions: positive control formulation containing 0.1% methyl nicotinate
Excerpt: This example illustrates delivery of nitric oxide formulations to five human subjects, using procedures and formulations similar to those discussed in Example 5. Each person served as their own control for the testing. A Moor Instruments Laser Doppler was used to determine circulation. […] The formulations used produce positive, almost immediate results when applied to the skin which, in these studies, was manifested by vasodilatation of the cutaneous vascular system.
For each subject, the following creams were applied: a negative control formulation (containing no NO), 0.010 gram of a 10,000 ppm NO formulation, 0.020 gram of a 10,000 ppm NO formulation, and a positive control formulation containing 0.1% methyl nicotinate. The formulations were prepared using procedures similar to those discussed in Example 1.

[3] = test system: humans; experiment: Laser Doppler capillary blood flow, closed Hilltop chamber on forearm, Example 5; format: in vivo, human; conditions: applied to the skin at 1/10% in alcohol
Excerpt: The formulation used in these studies contained nitric oxide dispersed in a lipid matrix. […] Nitric oxide is a very rapid acting molecule, and these studies used a system that employed laser Doppler with a covered chamber. The formulation was placed into the chamber and then attached to the skin by an adhesive layer on the covering. This provided a stable measuring device as determined by multiple normal evaluations of the capillary blood flow without treatment of nitric oxide.
A known positive control, methyl nicotinate, was applied to the skin at a concentration of 1/10% in alcohol. […] The vascular dynamics are such that when the blood vessels dilate physical parameters follow Bernoulli's law. This states that as one increases the diameter of a tube containing a liquid to flow will increase but the pressure and the speed of the liquid will decrease. The laser Doppler device accurately measured these parameters.
The test product was labeled as 10,000 ppm NO (nitric oxide). The study participants had 100 mg of the test product applied in a closed Hilltop chamber on the forearm. […]
A Moor Instruments DRT4 Laser Doppler Blood Flow Monitor (Devon, England) was used in these studies. The laser Doppler technique measured blood flow in the microcapillaries of the skin that are close to the skin surface and the blood flow in underlying arterioles and venules that help to regulate skin temperature. […]

Structure (SMILES)	% Wt. gain [1] [%]	Wt Gain [1] [g]	vasodilatation [2]	laser Doppler response of positive control [3]
OCCCO [1,3-Propanediol, 1,3-propanediol]	0.09	0.16		
COC(=O)c1cccnc1 [methyl nicotinate]			vasodilatation was observed	rapid response typical of the vasodilator
